Laboratory results: the supplement of paper PMC9265050, “Inhibition of RNA Binding in SND1 Increases the Levels of miR-1-3p and Sensitizes Cancer Cells to Navitoclax” (Cancers, 2022)

Tested on: SW480
Test: drug sensitivity score (DSS, integrated dose-response area); higher = more sensitive (stronger viability reduction); extreme values may be limits of the assay
In short: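 After 7 days of induction with 0.1 µg/mL doxycycline, SW480 cells stably harbouring inducible control or SND1-targeting shRNA were plated at 1000 cells per well in 384-well plates preloaded with 525 small-molecule inhibitors at five concentrations. CellTiter-Glo viability readings were taken 72 h later. Drug sensitivity scores come from integrating the area under a fitted non-linear dose–response model.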

[1] = shRNA: SND1 shRNA1 (SND1 silenced)
[2] = shRNA: SND1 shRNA2 (SND1 silenced)
[3] = shRNA: control shRNA (non-targeting)

| Compound | drug sensitivity score [1] [DSS] | drug sensitivity score [2] [DSS] | drug sensitivity score [3] [DSS] |
| --- | --- | --- | --- |
| CC(=O)NCC(=O)N1[C@@H]2CC[C@H]1c1ccc(Nc3ncc(C(F)(F)F)c(NC4CCC4)n3)cc12 | 17.4 | 14.2 | 13.2 |
| CC(C)(C)C[C@@H]1N[C@@H](C(=O)N[C@H]2CC[C@H](O)CC2)[C@H](c2cccc(Cl)c2F)[C@]12C(=O)Nc1cc(Cl)ccc12 | 1.3 | 1.9 | 3.3 |
| CC(C)CC(=O)Nc1n[nH]c2c1CN(C(=O)C1CCN(C)CC1)C2(C)C | 6.1 | 5.8 | 10.7 |
| CC(C)Oc1ccc(C(=O)N[C@H](CNC(=O)CN(C)C)Cc2ccc(-c3cn4cccc([C@H](C)O)c4n3)cc2)cc1Cl | 13.1 | 12 | 13.3 |
| CCNC(=O)C[C@@H]1N=C(c2ccc(Cl)cc2)c2cc(OC)ccc2-n2c(C)nnc21 | 2.7 | 0 | 0.6 |
| CCOc1ccn(-c2ccc(F)cc2)c(=O)c1C(=O)Nc1ccc(Oc2ccnc(N)c2Cl)c(F)c1 | 1.9 | 8.3 | 6.5 |
| CCc1cc(Nc2nccc(-c3c(-c4ccc(OC)c(C(=O)Nc5c(F)cccc5F)c4)nc4ccccn34)n2)c(OC)cc1N1CCC(N2CCN(S(C)(=O)=O)CC2)CC1 | 0.2 | 2.1 | 0 |
| CCc1cncnc1N1CCN(Cc2nc3ccc(C(F)(F)F)cc3[nH]2)CC1 | 0.3 | 2.9 | 2 |
| CCn1c(-c2nonc2N)nc2c(C#CC(C)(C)O)ncc(OC[C@H]3CCCNC3)c21 | 0.9 |  | 2 |
| CCn1c(-c2nonc2N)nc2cnc(Oc3cccc(NC(=O)c4ccc(OCCN5CCOCC5)cc4)c3)cc21 | 4.8 | 5.2 | 5.5 |
| CCn1c(C(=O)N(C2CC2)C2CC2)cc2c3c(ncn3C)c(Nc3cc(C)n(C)n3)nc21 | 0 | 0 | 0 |
| CCn1cc(-c2ccnc3[nH]c(-c4cccc(CN(C)C)c4)cc23)c(-c2ccc(NC(=O)N(C)C)cc2)n1 | 7.8 | 9.5 | 10.2 |
| CN(c1ccccc1CNc1nc(Nc2ccc3c(c2)CC(=O)N3)ncc1C(F)(F)F)S(C)(=O)=O | 9.7 | 8.3 | 9.2 |
| CN(c1ncccc1CNc1nc(Nc2ccc3c(c2)CC(=O)N3)ncc1C(F)(F)F)S(C)(=O)=O | 4.9 | 3.5 | 3.4 |
| CN1CCC(COc2cnc(-c3cccc(Cn4nc(-c5cccc(C#N)c5)ccc4=O)c3)nc2)CC1 | 0 | 0 | 0 |
| CNC(=O)c1ccc(C)c(-n2c(C)cc(OCc3ccc(F)cc3F)c(Br)c2=O)c1 | 0 | 1 | 0 |
| CNC(=O)c1ccccc1Nc1nc(Nc2ccc3c(c2OC)CCC[C@H](N2CCN(CCO)CC2)C3)ncc1Cl | 3.9 | 3.5 | 5.5 |
| CNc1nc(-c2ccc3c(N)n[nH]c3c2)cc(N2C[C@@H](C(=O)NC3CCCCC3)CC[C@H]2C)n1 | 4.7 | 4.2 | 3.8 |
| CNc1ncc2cc(-c3cc(NC(=O)NCCC(C)(C)C)c(F)cc3C)c(C)nc2n1 | 13.4 | 6.6 | 9.7 |
| COCC(=O)NC/C=C/c1ccc2ncnc(Nc3ccc(Oc4ccc(C)nc4)c(C)c3)c2c1 | 3.4 |  | 3.2 |
| COc1cc2ncnc(Oc3cccc(NC(=O)Nc4cc(C(C)(C)C(F)(F)F)on4)c3)c2cc1OC | 4.5 | 0 | 4.2 |
| COc1ccc(-c2cc3c(C)nc(N)nc3n([C@H]3CC[C@H](OCCO)CC3)c2=O)cn1 | 17.3 | 13.9 | 9.3 |
| COc1ccc(Cn2ccc3ccc(C(=O)NO)cc32)cc1 | 3.3 | 5.3 | 1.8 |
| CS(=O)(=O)N1CCc2c(-c3cnc(N)nc3)nc(N3CCOCC3)nc21 | 7 | 6.4 | 4.2 |
| C[C@@H](Oc1cc(-n2cnc3ccc(CN4CCN(C)CC4)cc32)sc1C(N)=O)c1ccccc1C(F)(F)F | 25.1 |  | 23.6 |
| C[C@@H](Oc1ccc2[nH]nc(/C=C/c3cnn(CCO)c3)c2c1)c1c(Cl)cncc1Cl | 8.9 | 3.6 | 4.2 |
| C[C@@]1(C(=O)Nc2ccc(F)nc2)CCCN1c1nc(Nc2cc(C3CC3)n[nH]2)c2cccn2n1 | 8.1 | 4.6 | 2.4 |

| Compound | drug sensitivity score [1] [DSS] | drug sensitivity score [2] [DSS] | drug sensitivity score [3] [DSS] |
| --- | --- | --- | --- |
| C[C@H]1Oc2cc(cnc2N)-c2c(nn(C)c2C#N)CN(C)C(=O)c2ccc(F)cc21 | 0.2 | 0.4 | 1.9 |
| Cc1c(Cn2c(C)nc3c(C(=O)O)cc(N4CCOCC4)cc32)cccc1C(F)(F)F | 2 | 3.3 | 0.8 |
| Cc1c(NC(=O)OC[C@@H]2COCCN2)cn2ncnc(Nc3ccc4c(cnn4Cc4cccc(F)c4)c3)c12 | 2 | 3.1 | 4 |
| Cc1ccc(C(=O)N(CCCN)[C@@H](c2oc3cc(Cl)ccc3c(=O)c2Cc2ccccc2)C(C)C)cc1 | 2.9 | 3.7 | 5.5 |
| Cc1ccc2nc(CN(CCN(Cc3nc4ccc(C)cc4[nH]3)Cc3nc4ccc(C)cc4[nH]3)Cc3nc4ccc(C)cc4[nH]3)[nH]c2c1 | 1.5 | 1.3 | 2.1 |
| Cc1cccc(CC(=O)N2CCc3c2ccc(-c2cn(C)c4ncnc(N)c24)c3F)n1 | 0 | 3.3 | 0 |
| Cc1nc(Nc2n[nH]c3c2CN(C(=O)N[C@H](CN(C)C)c2ccccc2)C3(C)C)c2sccc2n1 | 14.9 | 13.7 | 16.5 |
| Cc1ncc(Cl)cc1NCc1ccc(C(=O)N[C@@H](CC2CCCC2)C(=O)NC2CC2)s1 | 0 | 0 | 0.3 |
| Cc1nn(C)c(COc2ccc(N3CCN(S(=O)(=O)N(C)C)CC3)cc2)c1-c1cccc2c(CCCOc3cccc4ccccc34)c(C(=O)O)n(CCN3CCOCC3)c12 | 4.9 | 4.4 | 5.7 |
| Cn1cc(-c2ccc3nnc(C(F)(F)c4ccc5ncccc5c4)n3n2)cn1 | 0 | 0 | 1.3 |
| Cn1cc(C2=Nc3cc(NC(=O)C(N)C4CCCCC4)cc4c3C2=CNNC4=O)cn1 (stereo not drawn) | 8.3 | 8.3 | 10.7 |
| N#Cc1ccc(COC[C@H]2O[C@@H](n3c(NCc4ccc(Cl)c(Cl)c4)nc4c(N)ncnc43)[C@H](O)[C@@H]2O)cc1 | 0 | 0 | 0.1 |
| NCC(=O)Nc1ccc(-n2nc(C(F)(F)F)cc2-c2ccc3c(ccc4ccccc43)c2)cc1 | 10 | 5.3 | 7.5 |
| NC[C@@](O)(c1ccc(Cl)cc1)c1ccc(-c2cn[nH]c2)cc1 | 8 | 4.7 | 10.2 |
| Nc1nccc(-c2c(-c3ccc(F)cc3)ncn2C2CCCCC2)n1 | 0.8 | 0.4 | 0.8 |
| Nc1ncnc2c1c(COc1cccc(Cl)c1)nn2C1CCOCC1 | 0 | 0.1 | 0 |
| O=C(NC[C@H](O)CN1CCc2ccccc2C1)c1cc(NC2COC2)ncn1 | 0 | 0 | 0.2 |
| O=C(NOCC1CC1)c1ccc(F)c(F)c1Nc1ccc(I)cc1Cl | 16.4 | 7.4 | 10.5 |
| O=C(NOC[C@H](O)CO)c1ccc(F)c(F)c1Nc1ccc(I)cc1F | 17.9 | 8.2 | 9.5 |
| O=C(Nc1ccc2[nH]nc(-c3ccncc3)c2c1)[C@@H]1CCN(CC(=O)N2CCN(c3ccc(-c4ncccn4)cc3)CC2)C1 | 14.2 | 8.8 | 7.9 |
| O=C(O)c1ccc(-c2c[nH]c3ncc(-c4ccccc4)cc23)cc1C1CCCC1 | 1.9 | 3.3 | 3.4 |
| O=C(O)c1ccc(CN2CCC(CN[C@@H]3C[C@H]3c3ccccc3)CC2)cc1 | 0 | 8 | 1.2 |
| O=C1NC(=O)/C(=C/c2ccc3nccc(-c4ccncc4)c3c2)S1 | 7.6 |  | 5.9 |
| O=c1[nH]c(C2CCCN2)nc2c1oc1ccc(Cl)cc12 (stereo not drawn) | 1.5 | 0 | 8.1 |
| O=c1cc(N2CCOCC2)oc2c(-c3ccccc3)cccc12 | 8.9 | 9.9 | 8.3 |
| OCCn1cc(-c2cnc3nnn(Cc4ccc5ncccc5c4)c3n2)cn1 | 0 | 0 | 0 |
| Oc1c2ccccc2c2c3c(cccc13)N=N2 | 1.8 | 3.4 | 0.6 |
